Experimental data taken from ChEMBL document CHEMBL3272271, “Folate antagonists. 13. 2,4-Diamino-6-](alpha,alpha,alpha-trifluoro-m-tolyl)thio]quinazoline and related 2,4-diamino-6-[(phenyl- and naphthyl)thio]quinazolines, a unique class of antimetabolites with extraordinary antimalarial and antibacterial effects” (J Med Chem, 1978).
Values after ≈ are worked out from the molar mass of the structure shown. Active and inactive are the calls of the source. No cut-off for these calls is given here.

How the values were obtained:
[1] = tested on: Staphylococcus aureus; test: Antibacterial activity against drug-resistant Staphylococcus aureus S18713 by gradient plate test; type: functional
[2] = tested on: Shigella sonnei; test: Antibacterial activity against Shigella sonnei C-10 by gradient plate test; type: functional
[3] = tested on: Staphylococcus aureus; test: Antibacterial activity against Staphylococcus aureus UC-96 by gradient plate test; type: functional
[4] = tested on: Escherichia coli; test: Antibacterial activity against Escherichia coli Vogel by gradient plate test; type: functional
[5] = tested on: Mycobacterium tuberculosis; test: Antibacterial activity against Mycobacterium tuberculosis H37Ra by gradient plate test; type: functional
[6] = tested on: Plasmodium berghei; test: Antimalarial activity against trophozoite-induced Plasmodium berghei infected in mouse assessed as daily dose required to suppression of 90% parasite infection administered with diet for 6 days; type: functional
[7] = tested on: Pseudomonas aeruginosa; test: Antibacterial activity against Pseudomonas aeruginosa 28 by gradient plate test; type: functional
[8] = tested on: Plasmodium berghei; test: Ratio of quinine hydrochloride SD90 to compound SD90 for trophozoite-induced Plasmodium berghei infected in mouse assessed as daily dose required to suppression of 90% parasite infection administered with diet for 6 days; type: functional
[9] = tested on: Enterococcus faecalis; test: Antibacterial activity against Streptococcus faecalis MGH-2 by gradient plate test; type: functional
[10] = tested on: Plasmodium berghei; test: Antimalarial activity against Plasmodium berghei infected in mouse assessed as disease cure from parasite infection at 40 mg/kg, sc administered 72 hrs after infection; type: functional, organism-based; parameters: dose 40 mg/kg
[11] = tested on: Plasmodium berghei; test: Antimalarial activity against Plasmodium berghei infected in mouse assessed as increase in mean survival days of host at 5 mg/kg, sc administered 72 hrs after infection relative to control; type: functional; settings: route subcutaneous
[12] = tested on: Plasmodium berghei; test: Antimalarial activity against Plasmodium berghei infected in mouse assessed as disease cure from parasite infection at 160 mg/kg, sc administered 72 hrs after infection; type: functional, organism-based; parameters: dose 160 mg/kg
[13] = tested on: Plasmodium berghei; test: Antimalarial activity against Plasmodium berghei infected in mouse assessed as disease cure from parasite infection at 320 mg/kg, sc administered 72 hrs after infection; type: functional, organism-based; parameters: dose 320 mg/kg
[14] = tested on: Plasmodium berghei; test: Antimalarial activity against Plasmodium berghei infected in mouse assessed as increase in mean survival days of host at 20 mg/kg, sc administered 72 hrs after infection relative to control; type: functional; settings: route subcutaneous
[15] = tested on: Plasmodium berghei; test: Antimalarial activity against Plasmodium berghei infected in mouse assessed as increase in mean survival days of host at 2.5 mg/kg, sc administered 72 hrs after infection relative to control; type: functional; settings: route subcutaneous
[16] = tested on: Plasmodium berghei; test: Antimalarial activity against Plasmodium berghei infected in mouse assessed as increase in mean survival days of host at 10 mg/kg, sc administered 72 hrs after infection relative to control; type: functional; settings: route subcutaneous
[17] = tested on: Plasmodium berghei; test: Antimalarial activity against Plasmodium berghei infected in mouse assessed as disease cure from parasite infection at 80 mg/kg, sc administered 72 hrs after infection; type: functional, organism-based; parameters: dose 80 mg/kg
[18] = tested on: Plasmodium berghei; test: Antimalarial activity against Plasmodium berghei infected in mouse assessed as increase in mean survival days of host at 40 mg/kg, sc administered 72 hrs after infection relative to control; type: functional; settings: route subcutaneous
[19] = tested on: Plasmodium berghei; test: Antimalarial activity against Plasmodium berghei infected in mouse assessed as increase in mean survival days of host at 80 mg/kg, sc administered 72 hrs after infection relative to control; type: functional; settings: route subcutaneous
[20] = tested on: Plasmodium gallinaceum; test: Antimalarial activity against trophozoite-induced Plasmodium gallinaceum infected in white leghorn chicken assessed as increase in mean survival days of host at 160 mg/kg, sc administered 72 hrs after infection relative to control; type: functional; settings: route subcutaneous
[21] = tested on: Plasmodium gallinaceum; test: Antimalarial activity against trophozoite-induced Plasmodium gallinaceum infected in white leghorn chicken assessed as increase in mean survival days of host at 40 mg/kg, sc administered 72 hrs after infection relative to control; type: functional; settings: route subcutaneous
[22] = tested on: Plasmodium berghei; test: Antimalarial activity against Plasmodium berghei infected in mouse assessed as increase in mean survival days of host at 160 mg/kg, sc administered 72 hrs after infection relative to control; type: functional; settings: route subcutaneous
[23] = tested on: Plasmodium gallinaceum; test: Antimalarial activity against trophozoite-induced Plasmodium gallinaceum infected in white leghorn chicken assessed as increase in mean survival days of host at 320 mg/kg, sc administered 72 hrs after infection relative to control; type: functional; settings: route subcutaneous
[24] = tested on: Plasmodium gallinaceum; test: Antimalarial activity against trophozoite-induced Plasmodium gallinaceum infected in white leghorn chicken assessed as increase in mean survival days of host at 80 mg/kg, sc administered 72 hrs after infection relative to control; type: functional; settings: route subcutaneous
[25] = tested on: Plasmodium berghei; test: Antimalarial activity against Plasmodium berghei infected in mouse assessed as increase in mean survival days of host at 320 mg/kg, sc administered 72 hrs after infection relative to control; type: functional; settings: route subcutaneous
[26] = tested on: Plasmodium gallinaceum; test: Antimalarial activity against trophozoite-induced Plasmodium gallinaceum infected in white leghorn chicken assessed as increase in mean survival days of host at 20 mg/kg, sc administered 72 hrs after infection relative to control; type: functional; settings: route subcutaneous
[27] = tested on: Plasmodium gallinaceum; test: Antimalarial activity against trophozoite-induced Plasmodium gallinaceum infected in white leghorn chicken assessed as increase in mean survival days of host at 10 mg/kg, sc administered 72 hrs after infection relative to control; type: functional; settings: route subcutaneous
[28] = tested on: Plasmodium gallinaceum; test: Antimalarial activity against sporozoite-induced Plasmodium gallinaceum infected in white leghorn chicken assessed as disease cure from parasite infection at 160 mg/kg, sc administered 72 hrs after infection; type: functional, organism-based; parameters: dose 160 mg/kg
[29] = tested on: Plasmodium berghei; test: Antimalarial activity against Plasmodium berghei infected in mouse assessed as disease cure from parasite infection at 640 mg/kg, sc administered 72 hrs after infection; type: functional, organism-based; parameters: dose 640 mg/kg
[30] = tested on: Plasmodium gallinaceum; test: Antimalarial activity against sporozoite-induced Plasmodium gallinaceum infected in white leghorn chicken assessed as disease cure from parasite infection at 320 mg/kg, sc administered 72 hrs after infection; type: functional, organism-based; parameters: dose 320 mg/kg
[31] = tested on: Plasmodium gallinaceum; test: Antimalarial activity against sporozoite-induced Plasmodium gallinaceum infected in white leghorn chicken assessed as disease cure from parasite infection at 80 mg/kg, sc administered 72 hrs after infection; type: functional, organism-based; parameters: dose 80 mg/kg
[32] = tested on: Plasmodium berghei; test: Antimalarial activity against Plasmodium berghei infected in mouse assessed as disease cure from parasite infection at 20 mg/kg, sc administered 72 hrs after infection; type: functional, organism-based; parameters: dose 20 mg/kg
[33] = tested on: Plasmodium berghei; test: Antimalarial activity against Plasmodium berghei infected in mouse assessed as increase in mean survival days of host at 1.25 mg/kg, sc administered 72 hrs after infection relative to control; type: functional; settings: route subcutaneous
[34] = tested on: Plasmodium gallinaceum; test: Antimalarial activity against trophozoite-induced Plasmodium gallinaceum infected in white leghorn chicken assessed as disease cure from parasite infection at 320 mg/kg, sc administered 72 hrs after infection; type: functional, organism-based; parameters: dose 320 mg/kg
[35] = tested on: Plasmodium gallinaceum; test: Antimalarial activity against trophozoite-induced Plasmodium gallinaceum infected in white leghorn chicken assessed as disease cure from parasite infection at 160 mg/kg, sc administered 72 hrs after infection; type: functional, organism-based; parameters: dose 160 mg/kg

Structure (SMILES)	MIC [1] [µg/mL]	MIC [2] [µg/mL]	MIC [3] [µg/mL]	MIC [4] [µg/mL]	MIC [5] [µg/mL]	MIC [7] [µg/mL]	MIC [9] [µg/mL]	Activity [10]	MST [11] [days]	Activity [12]	Activity [13]	MST [14] [days]	MST [16] [days]	Activity [17]	MST [18] [days]	MST [19] [days]	MST [22] [days]	Activity [29]	further results
COc1cc(Cc2cnc(N)nc2N)cc(OC)c1OC [TRIMETHOPRIM]	< 0.25	< 0.25	< 0.25	< 0.25	> 25	> 25	< 0.25												SD90 [6]: 120 mg/kg/day; Ratio [8]: 0.6
Nc1nc(N)c2cc(Sc3c(Cl)c(Cl)c(Cl)c(Cl)c3Cl)ccc2n1	20 (≈ 45.4 µM)	> 25	10 (≈ 22.7 µM)	> 25		> 25	1.5 (≈ 3.4 µM)	Active	2.7	Active	Active	10.7	6.6	Active	18.1				MST [15]: 2 days
Nc1nc(N)c2cc(Sc3ccc(-c4ccccc4)cc3)ccc2n1									1.1	Active	Active	7.9	6.5	Active	12.1	15.6			
Nc1nc(N)c2cc(Sc3ccccc3Cl)ccc2n1	< 0.25	2 (≈ 6.61 µM)	< 0.25	< 0.25		> 25	< 0.25		0.3	Active	Active	0.5	0.3		0.5	8.1	10.9		MST [20]: 19.8 days; MST [21]: 7.6 days; MST [23]: 20.8 days; MST [24]: 10.2 days; MST [25]: 18.9 days; MST [26]: 6 days; MST [27]: 0 days
Nc1nc(N)c2c(Cl)c(Sc3cccc(C(F)(F)F)c3)ccc2n1	< 0.25	2 (≈ 5.39 µM)	< 0.25	0.5 (≈ 1.35 µM)	10 (≈ 27 µM)	> 25	< 0.25	Active		Active	Active	5.9		Active	14.7	19.9	24.9	Active	Activity [28]: Active; Activity [30]: Active; Activity [31]: Active
CC(=O)Nc1ccc(Sc2ccc3nc(N)nc(N)c3c2)cc1	< 0.25	> 25	< 0.25	2.5 (≈ 7.68 µM)	> 25	> 25	< 0.25			Active	Active	6.3	3.3	Active	12.9	24.9		Active	
CC(C)(C)c1ccc(Sc2ccc3nc(N)nc(N)c3c2)cc1	< 0.25	15 (≈ 46.2 µM)	< 0.25	10 (≈ 30.8 µM)		> 25	< 0.25				Active	1	1.1		2.6	6	7.8	Active	SD90 [6]: 18 mg/kg/day; Ratio [8]: 4.1; MST [25]: 17.9 days
Nc1nc(N)c2cc(Sc3cc(Cl)ccc3Cl)ccc2n1	< 0.25	10 (≈ 29.7 µM)	< 0.25	1 (≈ 2.97 µM)		> 25	< 0.25		2.3	Active	Active	5.9	2.9		8.2	9.8	8.8	Active	SD90 [6]: 4.5 mg/kg/day; Ratio [8]: 17
Nc1nc(N)c2cc(Sc3cc(Cl)cc(Cl)c3)ccc2n1	< 0.25	20 (≈ 59.3 µM)	< 0.25	2 (≈ 5.93 µM)	20 (≈ 59.3 µM)	> 25	< 0.25			Active	Active	4.1	1.1		6.9	12.7	17.9	Active	
Nc1nc(N)c2cc(NCc3ccc(Cl)c(Cl)c3)ccc2n1																			MST [20]: 15.3 days; MST [21]: 12.1 days; MST [23]: 16.6 days; MST [24]: 12.9 days; MST [26]: 7 days; MST [27]: 2.2 days
Cc1c(Sc2ccc(Cl)c(Cl)c2)ccc2nc(N)nc(N)c12								Active	7.3	Active	Active	15.4	7.9	Active				Active	Activity [32]: Active; MST [33]: 1.3 days; MST [15]: 2.5 days
Nc1nc(N)c2cc(Sc3cccc(Cl)c3)ccc2n1	5 (≈ 16.5 µM)	20 (≈ 66.1 µM)	2.5 (≈ 8.26 µM)	10 (≈ 33 µM)	> 25	> 25	10 (≈ 33 µM)				Active	0.5	0.5		3.5	4.3	4.9	Active	MST [25]: 20.9 days
COc1cccc(Sc2ccc3nc(N)nc(N)c3c2)c1	< 0.25	1 (≈ 3.35 µM)	< 0.25	< 0.25		> 25	< 0.25				Active	1.5	0.3		5.7	8.3	11.7	Active	MST [25]: 12.2 days
CN(Cc1ccc(Cl)c(Cl)c1)c1ccc2nc(N)nc(N)c2c1.Cl																			SD90 [6]: 0.16 mg/kg/day; Ratio [8]: 470
CN(Cc1ccc(Cl)c(Cl)c1)c1ccc2nc(N)nc(N)c2c1								Active		Active	Active			Active				Active	Activity [32]: Active; Activity [34]: Active; Activity [35]: Active
Cc1c(Sc2ccc3ccccc3c2)ccc2nc(N)nc(N)c12	< 2.5	< 2.5	< 2.5	< 2.5		> 25	< 2.5	Active	10.9	Active	Active	20.9	12.9	Active				Active	Activity [32]: Active; MST [33]: 1.9 days; MST [15]: 6.5 days
